Read-outs that look alike come from different tables or passages of the source.
Target: SIK2 (Homo sapiens, UniProt Q9H0K1)
Assay: SIK2 Enzymatic Assay High Version 2 (High ATP)
Assay type: biochemical
Summary of the method: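 At room temperature, enzyme (6 nM, 2× final) was preincubated with compound for 30 min, then 6 mM ATP and 400 μM HDAC5tide (both 2× final) were added for 2 h. ADP formed was measured by ADP-Glo Max (2 h reagent, 1 h detection) using luminescence.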

[1] = enzyme 6 nM, 6 mM ATP and 400 μM HDAC5tide (each 2× final concentration), 30 minutes pre-incubation, 2 hours, ADP-Glo Max luminescence, read-out: SIK2 high ATP IC50 (μM) (Test Example 2)

Chain of SIK2 (Q9H0K1 whole entry, species assumed): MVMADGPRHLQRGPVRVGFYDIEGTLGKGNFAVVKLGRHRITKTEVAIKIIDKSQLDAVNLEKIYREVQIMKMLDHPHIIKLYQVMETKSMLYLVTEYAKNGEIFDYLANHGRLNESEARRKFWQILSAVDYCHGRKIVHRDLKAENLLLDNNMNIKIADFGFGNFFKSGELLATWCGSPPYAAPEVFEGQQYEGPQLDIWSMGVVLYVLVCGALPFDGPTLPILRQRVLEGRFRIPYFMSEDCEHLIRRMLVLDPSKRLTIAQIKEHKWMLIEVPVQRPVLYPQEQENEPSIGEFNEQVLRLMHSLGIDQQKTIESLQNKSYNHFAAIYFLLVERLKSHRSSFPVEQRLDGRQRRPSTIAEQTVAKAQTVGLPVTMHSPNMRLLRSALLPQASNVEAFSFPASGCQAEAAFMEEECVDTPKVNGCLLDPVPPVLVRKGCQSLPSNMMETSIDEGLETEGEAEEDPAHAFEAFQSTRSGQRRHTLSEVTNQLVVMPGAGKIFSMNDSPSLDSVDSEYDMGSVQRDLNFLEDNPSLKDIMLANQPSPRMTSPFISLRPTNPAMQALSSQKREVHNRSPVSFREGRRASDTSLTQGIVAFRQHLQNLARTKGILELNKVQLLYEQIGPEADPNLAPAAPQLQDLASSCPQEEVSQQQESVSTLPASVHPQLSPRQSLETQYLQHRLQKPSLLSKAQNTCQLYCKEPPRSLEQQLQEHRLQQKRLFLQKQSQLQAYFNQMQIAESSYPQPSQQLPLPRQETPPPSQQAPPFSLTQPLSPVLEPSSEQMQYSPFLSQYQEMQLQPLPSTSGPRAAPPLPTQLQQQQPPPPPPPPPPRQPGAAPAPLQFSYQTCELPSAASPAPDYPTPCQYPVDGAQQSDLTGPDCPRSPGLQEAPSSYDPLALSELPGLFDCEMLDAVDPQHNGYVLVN

| SMILES | IC50 [1] | IC50 |
| --- | --- | --- |
| Cc1cc(-c2ccn3nc(Nc4cc(C)nc(C)n4)cc3c2)c(O[C@H]2C[C@H]3COC[C@@H](C2)N3)cn1 [Example 382, N-(2,6-dimethylpyrimidin-4-yl)-5-[2-methyl-5-[[(1S,5R,7s)-3-oxa-9-azabicyclo[3.3.1]nonan-7-yl]oxy]-4-pyridyl]pyrazolo[1,5-a]pyridin-2-amine] |  | < 0.000847 µM |
| Cc1cc(-c2ccn3nc(Nc4ccnnc4)cc3c2)c(O[C@H]2C[C@H]3COC[C@@H](C2)N3C)cn1 [Example 408, 5-[2-methyl-5-[[(1S,5R,7s)-9-methyl-3-oxa-9-azabicyclo[3.3.1]nonan-7-yl]oxy]-4-pyridyl]-N-pyridazin-4-yl-pyrazolo[1,5-a]pyridin-2-amine] |  | 0.001 µM |
| CCCNC(=O)c1ccc(Nc2cc3cc(-c4cc(C)ncc4O[C@H]4C[C@H]5COC[C@@H](C4)N5)ccn3n2)nc1 [Example 377, 6-[[5-[2-methyl-5-[[(1R,5S,7s)-3-oxa-9-azabicyclo[3.3.1]nonan-7-yl]oxy]-4-pyridyl]pyrazolo[1,5-a]pyridin-2-yl]amino]-N-propyl-pyridine-3-carboxamide] |  | < 0.000847 µM |
| CNC(=O)c1ccnc(Nc2cc3cc(-c4cc(C)ncc4O[C@H]4C[C@H]5COC[C@@H](C4)N5)ccn3n2)c1 [Example 172, 2-((5-(5-(((1R,5S,7s)-3-oxa-9-azabicyclo[3.3.1]nonan-7-yl)oxy)-2-methylpyridin-4-yl)pyrazolo[1,5-a]pyridin-2-yl)amino)-N-methylisonicotinamide] |  | 0.000876 µM |
| Cc1cc(Nc2cc3cc(-c4cc(OCC(F)F)ncc4OCC(C)(C)C#N)ccn3n2)nn(C)c1=O [Example 693, 3-[[6-(2,2-difluoroethoxy)-4-[2-[(1,5-dimethyl-6-oxo-pyridazin-3-yl)amino]pyrazolo[1,5-a]pyridin-5-yl]-3-pyridyl]oxy]-2,2-dimethyl-propanenitrile] | 0.0766 µM |  |
| Cc1cc(Nc2cc3cc(-c4cc(C#N)ccc4OCC(C)(C)O)ccn3n2)nc(C)n1 [Example 484, 3-[2-[(2,6-dimethylpyrimidin-4-yl)amino]pyrazolo[1,5-a]pyridin-5-yl]-4-(2-hydroxy-2-methyl-propoxy)benzonitrile] | 0.0571 µM |  |
| CC#Cc1ccc(O[C@H]2C[C@H]3COC[C@@H](C2)N3)c(-c2ccn3nc(NC(=O)C4CC4)cc3c2)c1 [Example 479, N-[5-[2-[[(1R,5S)-3-oxa-9-azabicyclo[3.3.1]nonan-7-yl]oxy]-5-prop-1-ynyl-phenyl]pyrazolo[1,5-a]pyridin-2-yl]cyclopropanecarboxamide] |  | 0.0371 µM |
| CCNC(=O)c1ccc(Nc2cc3cc(-c4cc(C)ncc4O[C@H]4C[C@H]5COC[C@@H](C4)N5)ccn3n2)nc1 [Example 384, N-ethyl-6-[[5-[2-methyl-5-[[(1S,5R,7s)-3-oxa-9-azabicyclo[3.3.1]nonan-7-yl]oxy]-4-pyridyl]pyrazolo[1,5-a]pyridin-2-yl]amino]pyridine-3-carboxamide] |  | 0.000889 µM |
| N#Cc1ccc(OC[C@H]2CNCCO2)c(-c2ccn3nc(Nc4ccccn4)cc3c2)c1 [Example 478, 4-[[(2R)-morpholin-2-yl]methoxy]-3-[2-(2-pyridylamino)pyrazolo[1,5-a]pyridin-5-yl]benzonitrile] | < 0.000847 µM |  |
| CCC(=O)c1ccc(O[C@H]2C[C@H]3COC[C@@H](C2)N3)c(-c2ccn3nc(NC(=O)C4CC4)cc3c2)c1 [Example 480, N-[5-[2-[[(1R,5S)-3-oxa-9-azabicyclo[3.3.1]nonan-7-yl]oxy]-5-propanoyl-phenyl]pyrazolo[1,5-a]pyridin-2-yl]cyclopropanecarboxamide] |  | < 0.000847 µM |
| COCCNC(=O)c1ccc(Nc2cc3cc(-c4cc(C)ncc4O[C@H]4C[C@H]5COC[C@@H](C4)N5)ccn3n2)nc1 [Example 387, N-(2-methoxyethyl)-6-[[5-[2-methyl-5-[[(1S,5R,7s)-3-oxa-9-azabicyclo[3.3.1]nonan-7-yl]oxy]-4-pyridyl]pyrazolo[1,5-a]pyridin-2-yl]amino]pyridine-3-carboxamide] |  | 0.001 µM |
| Cc1cnc(Nc2cn3cc(-c4cc(C)ncc4O[C@H]4C[C@H]5COC[C@@H](C4)N5)ncc3n2)cn1 [Example 320, 6-[2-methyl-5-[[(1S,5R)-3-oxa-9-azabicyclo[3.3.1]nonan-7-yl]oxy]-4-pyridyl]-N-(5-methylpyrazin-2-yl)imidazo[1,2-a]pyrazin-2-amine] |  | 0.00102 µM |
| CC#Cc1cc(-c2ccn3nc(NC(=O)C4CC4)cc3c2)c(O[C@@H]2C[C@H]3COC[C@@H](C2)N3)cn1 [Example 439, N-[5-[5-[[(1S,5R)-3-oxa-9-azabicyclo[3.3.1]nonan-7-yl]oxy]-2-prop-1-ynyl-4-pyridyl]pyrazolo[1,5-a]pyridin-2-yl]cyclopropanecarboxamide] |  | 0.00103 µM |
| Cn1nc(Nc2cc3cc(-c4cc(OCC(F)F)ncc4OCC(C)(C)C#N)ccn3n2)ccc1=O [Example 697, 3-[[6-(2,2-difluoroethoxy)-4-[2-[(1-methyl-6-oxo-pyridazin-3-yl)amino]pyrazolo[1,5-a]pyridin-5-yl]-3-pyridyl]oxy]-2,2-dimethyl-propanenitrile] | 0.021 µM |  |
| Cc1cc(Nc2cc3cc(-c4cc(OC(F)F)ncc4OCC(C)(C)C(N)=O)ccn3n2)nc(C)n1 [Example 727, 3-[[6-(difluoromethoxy)-4-[2-[(2,6-dimethylpyrimidin-4-yl)amino]pyrazolo[1,5-a]pyridin-5-yl]-3-pyridyl]oxy]-2,2-dimethyl-propanamide] | 0.0152 µM |  |

Continued, in another order:

| IC50 [1] | SMILES | IC50 |
| --- | --- | --- |
| 0.0862 µM | COc1cc(Nc2cc3cc(-c4cc(C)ncc4OCC(C)(C)O)ccn3n2)cc(OC)c1C(=O)NC1CC1 [Example 626, N-cyclopropyl-4-[[5-[5-(2-hydroxy-2-methyl-propoxy)-2-methyl-4-pyridyl]pyrazolo[1,5-a]pyridin-2-yl]amino]-2,6-dimethoxy-benzamide] |  |
| 0.0414 µM | COc1cc(-c2ccn3nc(Nc4cc(C)nc(C)n4)cc3c2)c(OC[C@H]2OCC[C@@H]2O)cn1 [Example 498, (2R,3S)-2-[[4-[2-[(2,6-dimethylpyrimidin-4-yl)amino]pyrazolo[1,5-a]pyridin-5-yl]-6-methoxy-3-pyridyl]oxymethyl]tetrahydrofuran-3-ol] |  |
| 0.00127 µM | CCc1nc(C)cc(Nc2cc3cc(-c4cc(C)ncc4O[C@H]4CC[C@H](O)CC4)ccn3n2)n1 [Example 224, (1r,4r)-4-((4-(2-((2-ethyl-6-methylpyrimidin-4-yl)amino)pyrazolo[1,5-a]pyridin-5-yl)-6-methylpyridin-3-yl)oxy)cyclohexan-1-ol] |  |
| 0.0275 µM | Cc1cc(-c2ccn3nc(Nc4cccnn4)cc3c2)c(OC[C@@H]2CN[C@H](C)CO2)cn1 [Example 513, 5-[2-methyl-5-[[(2S,5R)-5-methylmorpholin-2-yl]methoxy]-4-pyridyl]-N-pyridazin-3-yl-pyrazolo[1,5-a]pyridin-2-amine] |  |
| 0.0129 µM | Cc1cc(-c2ccn3nc(Nc4cc(C)nc(C)n4)cc3c2)c(OC[C@H]2C[C@H](O)C2)cn1 [Example 538, (1r,3r)-3-(((4-(2-((2,6-dimethylpyrimidin-4-yl)amino)pyrazolo[1,5-a]pyridin-5-yl)-6-methylpyridin-3-yl)oxy)methyl)cyclobutan-1-ol] |  |
| 0.0695 µM | Cc1cc(-c2ccn3nc(Nc4cc(C)nc(C)n4)cc3c2)c(OC[C@H](O)C2CC2)cn1 [Example 558, (1R)-1-cyclopropyl-2-[[4-[2-[(2,6-dimethylpyrimidin-4-yl)amino]pyrazolo[1,5-a]pyridin-5-yl]-6-methyl-3-pyridyl]oxy]ethanol] |  |
| 0.00378 µM | Cc1cc(-c2ccn3nc(Nc4cc(C)nc(C)n4)cc3c2)c(OC2CCC(C#N)CC2)cn1 (centres unmarked) [Example 552, 4-[[4-[2-[(2,6-dimethylpyrimidin-4-yl)amino]pyrazolo[1,5-a]pyridin-5-yl]-6-methyl-3-pyridyl]oxy]cyclohexanecarbonitrile] |  |
| 0.0448 µM | COc1cc(Nc2cc3cc(-c4cc(C)ncc4O[C@H]4CC[C@H](O)CC4)ccn3n2)ccc1C(=O)NC1CC1 [Example 242, N-cyclopropyl-4-[[5-[5-(4-hydroxycyclohexoxy)-2-methyl-4-pyridyl]pyrazolo[1,5-a]pyridin-2-yl]amino]-2-methoxy-benzamide] |  |
| 0.00876 µM | Cc1cc(-c2ccn3nc(Nc4cc(C)nc(C)n4)cc3c2)c(OCc2cccc(O)c2)cn1 [Example 272, 3-[[4-[2-[(2,6-dimethylpyrimidin-4-yl)amino]pyrazolo[1,5-a]pyridin-5-yl]-6-methyl-3-pyridyl]oxymethyl]phenol] |  |
| 0.00171 µM | Cc1cc(-c2ccn3nc(Nc4ccc5nccn5n4)cc3c2)c(OCC(C)(C)C#N)cn1 [Example 308, 3-[[4-[2-(imidazo[1,2-b]pyridazin-6-ylamino)pyrazolo[1,5-a]pyridin-5-yl]-6-methyl-3-pyridyl]oxy]-2,2-dimethyl-propanenitrile] |  |
| 0.0155 µM | CC(C)(C#N)COc1cnc(OCC#N)cc1-c1ccn2nc(NC(=O)C3CC3)cc2c1 [Example 724, N-[5-[2-(cyanomethoxy)-5-(2-cyano-2-methyl-propoxy)-4-pyridyl]pyrazolo[1,5-a]pyridin-2-yl]cyclopropanecarboxamide] |  |
| 0.00608 µM | Cc1cc(-c2ccn3nc(Nc4cc(C)c(=O)n(CC(C)C)n4)cc3c2)c(OCC(C)(C)O)cn1 [Example 282, 6-[[5-[5-(2-hydroxy-2-methyl-propoxy)-2-methyl-4-pyridyl]pyrazolo[1,5-a]pyridin-2-yl]amino]-2-isobutyl-4-methyl-pyridazin-3-one] |  |
| 0.0358 µM | Cc1cc(-c2ccn3nc(Nc4cc(C)c(=O)n(C)n4)cc3c2)c(OC2CCC(S(C)(=O)=O)CC2)cn1 (single isomer, unassigned) [Example 306, 2,4-dimethyl-6-((5-(2-methyl-5-(((1r,4r)-4-(methylsulfonyl)cyclohexyl)oxy)pyridin-4-yl)pyrazolo[1,5-a]pyridin-2-yl)amino)pyridazin-3(2H)-one] |  |
| < 0.000847 µM | Cc1cc(-c2ccc3nc(NC(=O)C4CC4)cn3c2)c(O[C@H]2CC[C@H](O)CC2)cn1 [Example 504, N-[6-[5-(4-hydroxycyclohexoxy)-2-methyl-4-pyridyl]imidazo[1,2-a]pyridin-2-yl]cyclopropanecarboxamide] |  |

Reference: patent US20240158392A1 (Janssen Biotech, Inc., priority 2021, published 2024)
